Results: ChEMBL document CHEMBL1201861, “Genomics of Drug Sensitity in Cancer screening data, Wellcome Trust Sanger Institute”

Experiments:
[1] = system: COLO-741; experiment: cells; type: functional, cell-based; conditions: Homo sapiens
Description: SANGER: Inhibition of human COLO-741 cell growth in a cell viability assay.

[2] = system: COR-L105; experiment: cells; type: functional, cell-based; conditions: Homo sapiens
Description: SANGER: Inhibition of human COR-L105 cell growth in a cell viability assay.

[3] = system: CP50-MEL-B; experiment: cells; type: functional, cell-based; conditions: Homo sapiens;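 further: growth inhibition of the human cell line, measured with a cell viability read-out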
Description: SANGER: Inhibition of human CP50-MEL-B cell growth in a cell viability assay.

[4] = system: CPC-N; experiment: cells; type: functional, cell-based; conditions: Homo sapiens;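 further: growth inhibition of CPC-N cells, with a cell viability assay as the readout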
Description: SANGER: Inhibition of human CPC-N cell growth in a cell viability assay.

[5] = system: Calu-3; experiment: cells; type: functional, cell-based; conditions: Homo sapiens;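 further: growth inhibition of human Calu-3 cells, determined with a cell viability assay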
Description: SANGER: Inhibition of human Calu-3 cell growth in a cell viability assay.

[6] = system: DMS-153; experiment: cells; type: functional, cell-based; conditions: Homo sapiens
Description: SANGER: Inhibition of human DMS-153 cell growth in a cell viability assay.

[7] = system: DMS-273; experiment: cells; type: functional, cell-based; conditions: Homo sapiens
Description: SANGER: Inhibition of human DMS-273 cell growth in a cell viability assay.

[8] = system: EB-3; experiment: cells; type: functional, cell-based; conditions: Homo sapiens;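 further: human EB-3 cells, growth inhibition read out via a cell viability assay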
Description: SANGER: Inhibition of human EB-3 cell growth in a cell viability assay.

[9] = system: G-402; experiment: cells; type: functional, cell-based; conditions: Homo sapiens
Description: SANGER: Inhibition of human G-402 cell growth in a cell viability assay.

[10] = system: HCC 2998; experiment: cells; type: functional, cell-based; conditions: Homo sapiens;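 further: growth inhibition of human HCC2998 cells, measured with a cell viability read-out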
Description: SANGER: Inhibition of human HCC2998 cell growth in a cell viability assay.

[11] = system: HEC-1; experiment: cells; type: functional, cell-based; conditions: Homo sapiens;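 further: growth inhibition of the cell line, read out with a cell viability assay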
Description: SANGER: Inhibition of human HEC-1 cell growth in a cell viability assay.

[12] = system: HOS; experiment: cells; type: functional, cell-based; conditions: Homo sapiens;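 further: growth inhibition of human HOS cells, read out with a cell viability assay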
Description: SANGER: Inhibition of human HOS cell growth in a cell viability assay.

[13] = system: HPAF-II; experiment: cells; type: functional, cell-based; conditions: Homo sapiens;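 further: growth inhibition of HPAF-II cells, read out with a cell viability assay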
Description: SANGER: Inhibition of human HPAF-II cell growth in a cell viability assay.

[14] = system: HT-29; experiment: cells; type: functional, cell-based; conditions: Homo sapiens;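 further: growth inhibition of human HT-29 cells, read out by a cell viability assay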
Description: SANGER: Inhibition of human HT-29 cell growth in a cell viability assay.

[15] = system: Huh-7; experiment: cells; type: functional, cell-based; conditions: Homo sapiens;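 further: HuH-7 cell growth inhibition, read out with a cell viability assay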
Description: SANGER: Inhibition of human HuH-7 cell growth in a cell viability assay.

[16] = system: HuP-T4; experiment: cells; type: functional, cell-based; conditions: Homo sapiens;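 further: cell viability assay measuring how much HuP-T4 cell growth is inhibited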
Description: SANGER: Inhibition of human HuP-T4 cell growth in a cell viability assay.

[17] = system: IGR-1; experiment: cells; type: functional, cell-based; conditions: Homo sapiens;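 further: growth inhibition of human IGR-1 cells, read out with a cell viability assay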
Description: SANGER: Inhibition of human IGR-1 cell growth in a cell viability assay.

[18] = system: JIYOYE; experiment: cells; type: functional, cell-based; conditions: Homo sapiens
Description: SANGER: Inhibition of human JiyoyeP-2003 cell growth in a cell viability assay.

[19] = system: K052; experiment: cells; type: functional, cell-based; conditions: Homo sapiens;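 further: Read-out from a cell viability assay, IC50 reflecting suppression of K052 cell growth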
Description: SANGER: Inhibition of human K052 cell growth in a cell viability assay.

[20] = system: KARPAS-422; experiment: cells; type: functional, cell-based; conditions: Homo sapiens
Description: SANGER: Inhibition of human KARPAS-422 cell growth in a cell viability assay.

[21] = system: KOSC-2; experiment: cells; type: functional, cell-based; conditions: Homo sapiens;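 further: growth inhibition of KOSC-2 cells, read out by a cell viability assay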
Description: SANGER: Inhibition of human KOSC-2 cell growth in a cell viability assay.

[22] = system: KP-N-YN; experiment: cells; type: functional, cell-based; conditions: Homo sapiens;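 further: growth inhibition of KP-N-YN cells, read out with a cell viability assay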
Description: SANGER: Inhibition of human KP-N-YN cell growth in a cell viability assay.

[23] = system: KU-19-19; experiment: cells; type: functional, cell-based; conditions: Homo sapiens
Description: SANGER: Inhibition of human KU-19-19 cell growth in a cell viability assay.

[24] = system: KYSE-140; experiment: cells; type: functional, cell-based; conditions: Homo sapiens;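 further: cell viability assay measuring growth inhibition in human KYSE-140 cells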
Description: SANGER: Inhibition of human KYSE-140 cell growth in a cell viability assay.

[25] = system: KYSE-150 cell line; experiment: cells; type: functional, cell-based; conditions: Homo sapiens;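 further: growth inhibition of human KYSE-150 cells, read out with a cell viability assay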
Description: SANGER: Inhibition of human KYSE-150 cell growth in a cell viability assay.

[26] = system: KYSE-270; experiment: cells; type: functional, cell-based; conditions: Homo sapiens;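 further: cell growth inhibition measured with a viability assay in the human KYSE-270 line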
Description: SANGER: Inhibition of human KYSE-270 cell growth in a cell viability assay.

[27] = system: KYSE-70 cell line; experiment: cells; type: functional, cell-based; conditions: Homo sapiens;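 further: cell viability assay read-out, with IC50 expressing suppression of KYSE-70 cell growth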
Description: SANGER: Inhibition of human KYSE-70 cell growth in a cell viability assay.

[28] = system: L-540; experiment: cells; type: functional, cell-based; conditions: Homo sapiens;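 further: growth inhibition of the human L-540 cell line, read out with a viability assay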
Description: SANGER: Inhibition of human L-540 cell growth in a cell viability assay.

[29] = system: MHH-ES-1; experiment: cells; type: functional, cell-based; conditions: Homo sapiens
Description: SANGER: Inhibition of human MHH-ES-1 cell growth in a cell viability assay.

[30] = system: MKN-7; experiment: cells; type: functional, cell-based; conditions: Homo sapiens;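 further: growth inhibition of MKN-7 cells, read out with a cell viability assay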
Description: SANGER: Inhibition of human MKN7 cell growth in a cell viability assay.

[31] = system: NCCIT; experiment: SANGER: Inhibition of human NCCIT cell growth in a cell viability assay.; type: functional, cell-based
[32] = system: NCI-H1436; experiment: cells; type: functional, cell-based; conditions: Homo sapiens;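 further: growth suppression of human NCI-H1436 cells, determined with a cell viability readout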
Description: SANGER: Inhibition of human NCI-H1436 cell growth in a cell viability assay.

[33] = system: NCI-H1522; experiment: cells; type: functional, cell-based; conditions: Homo sapiens;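 further: growth inhibition of NCI-H1522 cells, read out with a cell viability assay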
Description: SANGER: Inhibition of human NCI-H1522 cell growth in a cell viability assay.

[34] = system: NCI-H1755; experiment: cells; type: functional, cell-based; conditions: Homo sapiens;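 further: cell viability readout used to measure growth inhibition of NCI-H1755 cells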
Description: SANGER: Inhibition of human NCI-H1755 cell growth in a cell viability assay.

[35] = system: NCI-H1792; experiment: cells; type: functional, cell-based; conditions: Homo sapiens;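 further: growth inhibition of human NCI-H1792 cells, read out as cell viability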
Description: SANGER: Inhibition of human NCI-H1792 cell growth in a cell viability assay.

[36] = system: NCI-H1963; experiment: cells; type: functional, cell-based; conditions: Homo sapiens;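 further: cell growth inhibition of the human line, determined with a cell viability assay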
Description: SANGER: Inhibition of human NCI-H1963 cell growth in a cell viability assay.

[37] = system: NCI-H2030; experiment: cells; type: functional, cell-based; conditions: Homo sapiens;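 further: growth inhibition of human NCI-H2030 cells, read out by a cell viability assay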
Description: SANGER: Inhibition of human NCI-H2030 cell growth in a cell viability assay.

[38] = system: NCI-H2170; experiment: cells; type: functional, cell-based; conditions: Homo sapiens;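 further: cell viability assay measuring growth inhibition of human NCI-H2170 cancer cells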
Description: SANGER: Inhibition of human NCI-H2170 cell growth in a cell viability assay.

[39] = system: NCI-H2228; experiment: cells; type: functional, cell-based; conditions: Homo sapiens;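 further: growth inhibition of human NCI-H2228 cells, read out by a cell viability assay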
Description: SANGER: Inhibition of human NCI-H2228 cell growth in a cell viability assay.

[40] = system: NCI-H661; experiment: cells; type: functional, cell-based; conditions: Homo sapiens;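 further: cell viability assay read-out, IC50 being the concentration that inhibits growth of the cells by half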
Description: SANGER: Inhibition of human NCI-H661 cell growth in a cell viability assay.

[41] = system: OE33; experiment: cells; type: functional, cell-based; conditions: Homo sapiens;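 further: growth inhibition of human OE33 cells, measured by a cell viability assay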
Description: SANGER: Inhibition of human OE33 cell growth in a cell viability assay.

[42] = system: PA-1; experiment: cells; type: functional, cell-based; conditions: Homo sapiens;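 further: IC50 for suppression of PA-1 cell proliferation, determined with a cell viability read-out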
Description: SANGER: Inhibition of human PA-1 cell growth in a cell viability assay.

[43] = system: PANC-03-27; experiment: cells; type: functional, cell-based; conditions: Homo sapiens
Description: SANGER: Inhibition of human PANC-03-27 cell growth in a cell viability assay.

[44] = system: RMG-I; experiment: cells; type: functional, cell-based; conditions: Homo sapiens;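 further: growth inhibition of human RMG-I cells, read out with a cell viability assay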
Description: SANGER: Inhibition of human RMG-I cell growth in a cell viability assay.

[45] = system: SJRH30; experiment: cells; type: functional, cell-based; conditions: Homo sapiens;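 further: growth inhibition of human SJRH30 cells, read out with a cell viability assay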
Description: SANGER: Inhibition of human SJRH30 cell growth in a cell viability assay.

[46] = system: SW13; experiment: cells; type: functional, cell-based; conditions: Homo sapiens;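 further: IC50 is inhibition of SW13 cell growth, read out with a cell viability assay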
Description: SANGER: Inhibition of human SW13 cell growth in a cell viability assay.

[47] = system: T-24; experiment: cells; type: functional, cell-based; conditions: Homo sapiens;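 further: growth inhibition of T-24 cells, read out with a cell viability assay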
Description: SANGER: Inhibition of human T-24 cell growth in a cell viability assay.

[48] = system: TCC-SUP; experiment: cells; type: functional, cell-based; conditions: Homo sapiens;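 further: growth inhibition of TCC-SUP cells, read out with a cell viability assay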
Description: SANGER: Inhibition of human TCCSUP cell growth in a cell viability assay.

[49] = system: A673; experiment: cells; type: functional, cell-based; conditions: Homo sapiens;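 further: growth inhibition of human A673 cells, read out through a cell viability assay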
Description: SANGER: Inhibition of human A673 cell growth in a cell viability assay.

[50] = system: ACHN; experiment: cells; type: functional, cell-based; conditions: Homo sapiens;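 further: cell viability read-out used to gauge how strongly growth of human ACHN cells is suppressed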
Description: SANGER: Inhibition of human ACHN cell growth in a cell viability assay.

[51] = system: ARH-77; experiment: cells; type: functional, cell-based; conditions: Homo sapiens;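 further: growth inhibition of ARH-77 cells, read out by a cell viability assay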
Description: SANGER: Inhibition of human ARH-77 cell growth in a cell viability assay.

[52] = system: BFTC-905; experiment: cells; type: functional, cell-based; conditions: Homo sapiens
Description: SANGER: Inhibition of human BFTC-905 cell growth in a cell viability assay.

[53] = system: BFTC-909; experiment: cells; type: functional, cell-based; conditions: Homo sapiens
Description: SANGER: Inhibition of human BFTC-909 cell growth in a cell viability assay.

[54] = system: CAL-12T; experiment: cells; type: functional, cell-based, Homo sapiens; conditions: Homo sapiens, CAL-12T;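 further: growth inhibition of human CAL-12T cells, read out with a cell viability assay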
Description: SANGER: Inhibition of human CAL-12T cell growth in a cell viability assay.

[55] = system: CAL-51; experiment: cells; type: functional, cell-based; conditions: Homo sapiens;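 further: human CAL-51 cell line, growth inhibition read out via a cell viability assay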
Description: SANGER: Inhibition of human CAL-51 cell growth in a cell viability assay.

[56] = system: CAL-54; experiment: cells; type: functional, cell-based; conditions: Homo sapiens;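 further: growth inhibition of CAL-54 cells, read out by a viability measurement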
Description: SANGER: Inhibition of human CAL-54 cell growth in a cell viability assay.

[57] = system: TUR; experiment: cells; type: functional, cell-based; conditions: Homo sapiens;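 further: growth inhibition of human TUR cells, read out with a cell viability assay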
Description: SANGER: Inhibition of human TUR cell growth in a cell viability assay.

[58] = system: U-118-MG; experiment: cells; type: functional, cell-based; conditions: Homo sapiens
Description: SANGER: Inhibition of human U-118-MG cell growth in a cell viability assay.

[59] = system: UO-31; experiment: cells; type: functional, cell-based; conditions: Homo sapiens
Description: SANGER: Inhibition of human U031 cell growth in a cell viability assay.

[60] = system: UACC-893; experiment: cells; type: functional, cell-based; conditions: Homo sapiens
Description: SANGER: Inhibition of human UACC-893 cell growth in a cell viability assay.

[61] = system: UMC-11; experiment: cells; type: functional, cell-based; conditions: Homo sapiens;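 further: growth inhibition of UMC-11 cells, read out with a cell viability assay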
Description: SANGER: Inhibition of human UMC-11 cell growth in a cell viability assay.

[62] = system: VMRC-RCZ; experiment: cells; type: functional, cell-based; conditions: Homo sapiens
Description: SANGER: Inhibition of human VMRC-RCZ cell growth in a cell viability assay.

[63] = system: WSU-NHL; experiment: cells; type: functional, cell-based; conditions: Homo sapiens;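 further: growth inhibition of human WSU-NHL cells, read out with a cell viability assay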
Description: SANGER: Inhibition of human WSU-NHL cell growth in a cell viability assay.

[64] = system: CHP-212; experiment: cells; type: functional, cell-based; conditions: Homo sapiens
Description: SANGER: Inhibition of human CHP-212 cell growth in a cell viability assay.

Which IC50 [1] does the source give for CCNC(=O)c1noc(-c2cc(C(C)C)c(O)cc2O)c1-c1ccc(CN2CCOCC2)cc1 [LUMINESPIB] here?
The IC50 was 55.3 nM.

And the IC50 [2]?
Its IC50 is 19.1 nM.

And the IC50 [3]?
The IC50 was 83.7 nM.

And the IC50 [4]?
Its IC50 is greater than 256 nM.

What about the IC50 [5] of the same compound?
Its IC50 is 37.9 nM.

And the IC50 [6]?
Its IC50 is 77.3 nM.

What about the IC50 [7] of the same compound?
Its IC50 is 34.8 nM.

And the IC50 [8]?
Its IC50 is 224 nM.

And the IC50 [9]?
The IC50 was 36.1 nM.

What about the IC50 [10] of the same compound?
Its IC50 is 29.4 nM.

And the IC50 [11]?
The IC50 was 71.6 nM.

What about the IC50 [12] of the same compound?
Its IC50 is 1.38 nM.

And the IC50 [13]?
The IC50 was greater than 256 nM.

And the IC50 [14]?
The IC50 was 43.6 nM.

And the IC50 [15]?
Its IC50 is 70.3 nM.

And the IC50 [16]?
The IC50 was 65.9 nM.

What about the IC50 [17] of the same compound?
Its IC50 is 20.5 nM.

What about the IC50 [18] of the same compound?
Its IC50 is 33.9 nM.

And the IC50 [19]?
Its IC50 is 171 nM.

And the IC50 [20]?
Its IC50 is 140 nM.

And the IC50 [21]?
The IC50 was 41.1 nM.

What about the IC50 [22] of the same compound?
The IC50 was greater than 256 nM.

And the IC50 [23]?
Its IC50 is 108 nM.

What about the IC50 [24] of the same compound?
Its IC50 is 20.2 nM.

And the IC50 [25]?
The IC50 was 36.1 nM.

And the IC50 [26]?
Its IC50 is 10.6 nM.

What about the IC50 [27] of the same compound?
Its IC50 is 38.1 nM.

What about the IC50 [28] of the same compound?
The IC50 was greater than 256 nM.

What about the IC50 [29] of the same compound?
Its IC50 is 12.6 nM.

What about the IC50 [30] of the same compound?
The IC50 was greater than 256 nM.

And the IC50 [31]?
The IC50 was 66 nM.

And the IC50 [32]?
The IC50 was 218 nM.

And the IC50 [33]?
The IC50 was 148 nM.

What about the IC50 [34] of the same compound?
The IC50 was 138 nM.

And the IC50 [35]?
Its IC50 is 45.8 nM.

And the IC50 [36]?
The IC50 was 51.8 nM.

What about the IC50 [37] of the same compound?
The IC50 was 17 nM.

What about the IC50 [38] of the same compound?
Its IC50 is 163 nM.

And the IC50 [39]?
Its IC50 is 10.6 nM.

And the IC50 [40]?
The IC50 was 112 nM.

And the IC50 [41]?
The IC50 was 42.4 nM.

What about the IC50 [42] of the same compound?
The IC50 was 27.6 nM.

And the IC50 [43]?
The IC50 was 11.6 nM.

And the IC50 [44]?
Its IC50 is greater than 256 nM.

And the IC50 [45]?
Its IC50 is 94.4 nM.

What about the IC50 [46] of the same compound?
The IC50 was 45.9 nM.

What about the IC50 [47] of the same compound?
Its IC50 is 53.8 nM.

And the IC50 [48]?
The IC50 was greater than 256 nM.

And the IC50 [49]?
Its IC50 is 104 nM.

And the IC50 [50]?
The IC50 was 23.5 nM.

And the IC50 [51]?
The IC50 was 53.9 nM.

What about the IC50 [52] of the same compound?
The IC50 was 9.38 nM.

What about the IC50 [53] of the same compound?
Its IC50 is 31.3 nM.

What about the IC50 [54] of the same compound?
The IC50 was 9.22 nM.

And the IC50 [55]?
The IC50 was 3.25 nM.

And the IC50 [56]?
The IC50 was greater than 256 nM.

And the IC50 [57]?
Its IC50 is 77.3 nM.

What about the IC50 [58] of the same compound?
The IC50 was 25.8 nM.

And the IC50 [59]?
The IC50 was 47.7 nM.

And the IC50 [60]?
The IC50 was 59 nM.

What about the IC50 [61] of the same compound?
Its IC50 is greater than 256 nM.

And the IC50 [62]?
Its IC50 is 16.5 nM.

What about the IC50 [63] of the same compound?
Its IC50 is 73.3 nM.

What about the IC50 [64] of the same compound?
Its IC50 is 22.1 nM.

Which results are given for C/C=C(/C)C(=O)O[C@H]1C(C)=C2[C@H]([C@@H]1OC(=O)CCCCCCC)[C@@](C)(OC(C)=O)C[C@H](OC(=O)CCC)[C@@]1(O)[C@H]2OC(=O)[C@@]1(C)O [THAPSIGARGIN]?
IC50 [1]: 10.9 nM; IC50 [2]: 11.5 nM; IC50 [3]: 11.1 nM; IC50 [4]: 10 nM; IC50 [5]: > 512 nM; IC50 [6]: 19.9 nM; IC50 [7]: < 2 nM; IC50 [8]: 19 nM; IC50 [9]: 3.95 nM; IC50 [10]: < 2 nM; IC50 [11]: 40.4 nM; IC50 [12]: 1.96 nM; IC50 [13]: 61.9 nM; IC50 [14]: 5.4 nM; IC50 [15]: < 2 nM; IC50 [16]: 1.3 nM; IC50 [17]: 10.5 nM; IC50 [18]: 7.21 nM; IC50 [19]: 495 nM; IC50 [20]: 23.9 nM; IC50 [21]: 425 nM; IC50 [22]: 27 nM; IC50 [23]: 80 nM; IC50 [24]: < 2 nM; IC50 [25]: 22.2 nM; IC50 [26]: 1.49 nM; IC50 [27]: < 2 nM; IC50 [28]: 75.2 nM; IC50 [29]: 4.18 nM; IC50 [30]: > 512 nM; IC50 [31]: < 2 nM; IC50 [32]: > 512 nM; IC50 [33]: > 512 nM; IC50 [34]: 310 nM; IC50 [35]: 0.526 nM; IC50 [36]: 66.2 nM; IC50 [37]: 4.05 nM; IC50 [38]: 14.4 nM; IC50 [39]: 8 nM; IC50 [40]: 19.9 nM; IC50 [41]: 46.9 nM; IC50 [42]: 0.698 nM; IC50 [43]: < 2 nM; IC50 [44]: 13.3 nM; IC50 [45]: 8.84 nM; IC50 [46]: 9.38 nM; IC50 [47]: 12.3 nM; IC50 [48]: 51.6 nM; IC50 [49]: 7.24 nM; IC50 [50]: 28.6 nM; IC50 [51]: 75.1 nM; IC50 [52]: 0.662 nM; IC50 [53]: 0.968 nM; IC50 [54]: < 2 nM; IC50 [55]: 0.971 nM; IC50 [56]: > 512 nM; IC50 [57]: 12.5 nM; IC50 [58]: 31.9 nM; IC50 [59]: 57.7 nM; IC50 [60]: 58.7 nM; IC50 [61]: 9.15 nM; IC50 [62]: 11.2 nM; IC50 [63]: 5.54 nM; IC50 [64]: 3 nM
